Tests used:
neuropathic guinea-pigs [1] = experiment: Reversal of mechanical hyperalgesia in a model of neuropathic pain (partial sciatic nerve ligation, paw withdrawal threshold); assay type: in vivo, guinea pig
From the text: Neuropathic hyperalgesia is induced by partial ligation of the left sciatic nerve (Seltzer et al, Pain 43, 1990, 205-218; Campbell et al, Neuroscience 87, 1998, 527-532). Briefly, male Dunkin Hartley guinea pigs (200-250 g) are anaesthetized with isoflurane in N2O:O2, the left sciatic nerve exposed at mid thigh level through a small incision and ⅓ to ½ of the nerve thickness tightly ligated within a 7.0 silk suture. The wound is closed and the animals are allowed to recover from surgery for 12 to 15 days.
Mechanical hyperalgesia is assessed by measuring paw withdrawal thresholds to an increasing pressure stimulus placed onto the dorsal surface of the paw using an analgesymeter (Ugo-Basile, Milan) with a cut-off of 250 g. Withdrawal are measured on both the ipsilateral (ligated) and contralateral (unligated) paw prior to and then up to 6 h following drug or vehicle administration. Reversal of hyperalgesia at each time point is calculated according to the following formula, which uses the contralateral paw as a reference: […]
(§1) The enantiomers of the compound of formula I are administered daily in 0.5% methyl-cellulose/water, with Trileptal™ included in each experiment as positive control. Each experiment uses 6 randomly assigned animals per treatment group. Statistical analysis is carried out on withdrawal threshold data comparing test to vehicle.

neuropathic guinea-pigs [2] = experiment: Side-effects observed after administration in the neuropathic pain model; assay type: in vivo, guinea pig
Method: as §1
The R-enantiomer of the compound of formula I produces a dose-related reversal of mechanical hyperalgesia in neuropathic guinea-pigs. A maximum reversal of 73% is observed 1 h following administration with a calculated D50 value of 47 mg/kg.

[3] = 1 h following administration, neuropathic guinea-pigs
[4] = highest dose tested (100 mg/kg)

SMILES | calculated D50 value (reversal of mechanical hyperalgesia) (neuropathic guinea-pigs [1]; [3]) [mg/kg] | maximum reversal of mechanical hyperalgesia (neuropathic guinea-pigs [1]; [3]) [%] | duration of anti-hyperalgesic effect (neuropathic guinea-pigs [1]; 6 h following administration) | side-effects (neuropathic guinea-pigs [2]; highest dose) | anti-hyperalgesic activity (neuropathic guinea-pigs [1]; [4]) | apparent maximal reversal of hyperalgesia (neuropathic guinea-pigs [1]; [4]) [%] | anti-hyperalgesic activity (neuropathic guinea-pigs [1]; lower doses (below 100 mg/kg)) | side-effects (neuropathic guinea-pigs [2]; at doses that reverse mechanical hyperalgesia)
NC(=O)N1c2ccccc2C[C@@H](O)c2ccccc21 (single isomer, unassigned) [R-enantiomer, R(−)-10,11-dihydro-10-hydroxy-5H-dibenzo[b,f]azepine-5-carboxamide] | 47 | 73 | significant activity | comparatively mild side-effect |  |  |  | 
NC(=O)N1c2ccccc2C[C@H](O)c2ccccc21 (single isomer, unassigned) [S-enantiomer, S(+)-10,11-dihydro-10-hydroxy-5H-dibenzo[b,f]azepine-5-carboxamide] |  |  |  |  | observed | 55 | no significant effect | marked side-effects, principally ataxia and catalepsy
